These results are taken from US10610506B2 (UCL Business PLC, priority 2004, dated 2020).

“Also recorded” adds a separate entry of the source.

Data set [1] deals with neutrophils. The data set can be described thus: Phagotest neutrophil phagocytosis, blood incubated with ammonia and amino acids. The data set is classed as cell-based, human. As to the method: Methods for Measurement of Neutrophil Phagocytosis and oxidative burst Phagotest: Heparinised whole blood was incubated with opsonised FITC-labelled E coil and CD16. The cells were then analysed by flow cytometry (FACScan Becton Dickinson), gated through forward and side scatter and subsequently assessed on the basis of R-phycoerythrin (PE) [Immunotech, Marseille, France] flurochrome expression to identify CD16 positive cells. The gated population was then assessed for the presence of FITC-labelled bacteria.
(§1) Blood was collected from healthy volunteers (n=15) and incubated for 1 hour with increasing concentrations of ammonia. The ability of the neutrophils to phagocytose bacteria was measured using the Phagotest and Neutrophil chemotaxis assays. 10 ng/ml IL-8 was used in the Neutrophil chemotaxis assay.
Blood was collected from healthy volunteers (n=15) and incubated for 1 hour with ammonia and selected amino acids. The ability of the neutrophils to phagocytose bacteria was measured using the Phagotest assay.

Data set [2] has as its system neutrophils. The following applies: blood incubated 1 hour with increasing concentrations of ammonia; 10 ng/ml IL-8 (FIG. 3). As to the method: Neutrophil Chemotaxis: Neutrophil chemotaxis was measured using a modified Boyden chamber method using interleukin-8 as chemo-attractant to stimulate chemokinesis.
as §1

Data set [3] relates to devascularized pig model of acute liver failure. The experiment in a line: Devascularized pig model of acute liver failure. The following applies: for muscle ammonia uptake/production (femoral vein-artery): FIG. 23. The format is in vivo, pigs.
Description: Pigs had catheters inserted into the femoral artery and vein, portal vein, renal vein and pulmonary artery. The experiment started at time=−1 hr, when placebo or treatment infusions were started.
1. Placebo: 5% Dextrose over 3 hours, oral water placebo
At the end of the experiment a section of frontal cortex was removed for brain water measurements.
Data set [4] relates to BDL cirrhotic rats. The experiment in a line: Bile duct ligated rat model, IP ornithine, phenylbutyrate, OP. The format is in vivo, Sprague-Dawley rats. The method, then: Male Sprague-Dawley rats (200-250 g) were used for this procedure. Following anaesthetisation, a mid-line laparotamy was performed, the bile duct was exposed, triply ligated with 4.0 silk suture, and severed between the second and third ligature. The wound was closed in layers with absorbable suture, and the animal allowed to recover in a quiet room before being returned to the animal storage facility. Animals were kept at a constant temperature (20° C.) in a 12 hour light/dark cycle with access to water and standard rodent chow ad libitum. […] At six weeks, under anaesthesia a right carotid arterial catheter was inserted and used to collect repeated blood samples. Following this procedure a baseline sample was collected prior to administration of the study formulations by IP injection. […] Blood samples were collected into pre-cooled […] tubes and stored on ice prior to processing. Plasma was collected following centrifugation (3,000 rpm, 10 mins) and stored at -80° C. prior to analyses. Ammonia, glucose, lactate and urea were measured using a COBRAS Mira S according to manufacturers instructions. Amino acids were quantified by HPLC with fluorescence detection.

Data set [5] relates to patients with cirrhosis and hyperammonemia. The data set can be described thus: Open labelled study of ornithine, phenylbutyrate and OP in hepatic encephalopathy. The format is in vivo, human. The following applies: for mean ammonia levels: over the period of treatment (FIG. 11); for mean glutamine levels: over the period of treatment (FIG. 12). The source says: • 1. Groups-3 patients per group. Total 12. • 2. Inclusion criteria • adult patients aged 18-80 years, —liver cirrhosis documented by histology or clinical criteria • HE type C, ammonia concentration of >80 umol/L, informed consent/assent • 3. Exclusion criteria • other concomitant neurological disorder, —use of another specific ammonia lowering drug, —respiratory failure requiring mechanical ventilation and sedation, —uncontrolled gastrointestinal bleeding, —hypotension requiring inotropes, overt renal failure (creatinine >2 mg/dl), hemodialysis, —extracorporeal liver support, known hypersensitivity to any of the study drugs, —pregnancy. Assessment of Mental State
In an open labelled study, we included 8 patients with cirrhosis and hyperammonemia. They were matched for the severity of liver disease (see Table 3). They were treated with one of the following regimes for a 3 day period and observations were made for 5 days. The study groups were:
(i) Placebo: 5% Dextrose over 4 hours;
(iii) Phenylbutyrate: 10 g twice daily, orally (0800 and 1600); and
Patients were fasted overnight between 0000 midnight and 0800 am. They were fed intragastrically with a diet of 25 KCal/Kg that included 1 g/Kg protein diet starting at 0800 and finishing at midnight. Blood was sampled at 0730 am and then at 1800 hr for the measurement of ammonia and glutamine. Patients were monitored closely for side effects.

In data set [6] the test system is patients with cirrhosis admitted for management of variceal bleeding. The experiment in a line: Open labelled study of isoleucine and OIP after variceal bleeding. The data set is classed as in vivo, human. The method, then: • 1. Groups—2 patients per group. Total 6 • 2. Inclusion criteria • Adult patients aged 18-80 years, liver cirrhosis documented by histology or clinical criteria, Child B or C, recent Gastrointestinal bleed from varices (<6 hours after presentation), informed consent/assent. • 3. Exclusion criteria • other concomitant neurological disorder, use of another specific ammonia lowering drug, respiratory failure requiring mechanical ventilation and sedation, uncontrolled gastrointestinal bleeding, hypotension requiring inotropes, overt renal failure (creatinine >2 nag/dl), hemodialysis, extracorporeal liver support, known hypersensitivity to any of the study drugs, pregnancy/lactation. Methods
In an open labelled study, we included 6 patients with cirrhosis and who were admitted for management of variceal bleeding. They were matched for the severity of liver disease (see Table 4). They were treated with one of the following regimes for a 3 day period and observations were made for 5 days. The study groups were:
i. Placebo: 5% Dextrose over 4 hours (250 ml)
ii. Isoleucine alone: 10 gm IV in 250 ml 5% Dextrose over 2 hours in two divided doses.
Patients were fasted overnight between 0000 midnight and 0800 am. They were fed intragastrically with a diet of 25 KCal/Kg that included 1 g/Kg protein diet starting at 0800 and finishing at midnight. Blood was sampled at 0730 am and then at 1800 hr for the measurement of ammonia and glutamine. Patients were monitored closely for side effects. The drug was tolerated well in each of the groups and no adverse events were observed. Because the patients received sedation for their initial endoscopy, the mental state assessment was impossible to interpret. One patient each in the Placebo and the Isoelucine groups died from multiorgan failure in the hospital. The rest of the patients survived.

The test system of data set [7] is patients with HE grade 3 undergoing heamofiltration. The data set can be described thus: LOLA infusion in patients undergoing heamofiltration (CVVH). The data set is classed as in vivo, human. The source says: (§2) Blood was sampled for the measurement of ammonia and glutamine.
Data set [8] has as its system patients with cirrhosis. The experiment in a line: LOLA infusion in cirrhosis with HE: ammonia and glutamine. The format is in vivo, human.
From the text: as §2

Data set [9] concerns patients with advanced cirrhosis. The data set can be described thus: Aspartate accumulation during L-ornithine L-aspartate treatment. The data set is classed as in vivo, human.
Data set [10] has as its system patients with biopsy proven cirrhosis of the liver. The experiment in a line: Simulated gastrointestinal bleed in cirrhotic patients, neutrophil chemotaxis with isoleucine infusion. The format is in vivo, human. Particulars: after simulated bleed (75 g amino acid mixture), isoleucine iv over 2 hours. The source says:
Ten overnight fasted, metabolically stable patients with biopsy proven cirrhosis of the liver [9 males and 1 female; mean 49.6 years (SEM 9.1); mean Child-Pugh score of 7.8 (SEM 1.2)] were studied prior to and two hours after an oral administration of 75 grams of an amino acid mixture that mimics the hemoglobin molecule (Nutricia, Cuijk, Netherlands). In seven other patients [4 male and 3 female; mean 51.4 years (SEM 6.7); mean Child-Pugh score of 8.1 (SEM 1.4)], following administration of the amino acid mixture, isoleucine was administered intravenously over a 2 hour period (iso-osmotic solution containing 40 mg/l of isoleucine at a rate of 100 ml/hr). Neutrophil chemotaxis (see Example 1 for method) and plasma ammonia were measured in peripheral venous blood samples.

Data set [11] deals with patients with biopsy-proven cirrhosis of the liver. The data set can be described thus: Simulated bleed with isoleucine supplementation: protein kinetics (Phe model) and ammonia. The data set is classed as in vivo, human. The following applies: for Net Balance / Protein breakdown / Protein synthesis: mean ± SEM. As to the method:
Sixteen metabolically stable patients with biopsy-proven cirrhosis of the liver were studied. Patients were randomized either to supplementation with isoleucine (40 mg/L solution; 50 ml/hr) or placebo during a simulated bleed over a 4-hour period. Protein synthesis (measured using primed continuous infusion of L-[ring-^2H5]phenylalanine), L-[ring-^2H4]tyrosine and L[ring-^2H2]tyrosine) and ammonia.

The mark [12] stands for this setting: LOLA 40 g over 8 hours (FIG. 8).

For `NC(=O)CC[C@H](N)C(=O)O` [glutamine], in data set [1] (blood incubated 1 hour with ammonia and selected amino acid (FIG. 4)), the “ammonia-induced reduction in neutrophil phagocytosis” value is given as “partially reversed”.

With `N` [ammonia], in data set [2], the neutrophil chemotaxis result is given as “significant reduction”. Also, in data set [1] (blood of healthy volunteers incubated 1 hour with increasing concentrations of ammonia (FIG. 2)), the neutrophil phagocytosis result is “significant reduction”.

As for phenylbutyrate, the arterial ammonia result in data set [3] (0.3 g/Kg each over 3 hours, to experiment termination (FIG. 22), listed as Phenylbutyrate alone) is recorded as “initial blunting of arterial ammonia levels, which quickly rises to levels comparable with ornithine alone at experiment termination; also recorded: insignificant effects”. Also, the “muscle ammonia uptake/production (femoral vein-artery)” value in [3] (listed as P alone) is given as “increase in ammonia production by the muscle”; in data set [3] (listed as Phenylbutyrate alone) it was “little change”. The “gut ammonia production (portal drained viscera-artery)” value in [3] (FIG. 24) is given as “appreciable”. Further, the muscle glutamine release entry in data set [3] (FIG. 25, listed as Phenylbutyrate alone) is given as “net removal”. The gut glutamine uptake entry in [3] (FIG. 26) is listed as “little overt effect”. Further, the arterial glutamine levels entry in data set [3] (FIG. 28) is “marginally increases”. Moreover, the plasma ammonia result in data set [4] (after 1 hour, p<0.01 vs all other groups) is listed as “significant increase”; in data set [4] (three hour time point / end of the study) it was “difference was found to be smaller”. For the same compound, the Dead/Alive entry in data set [5] (individual patients P3-P8, listed as Phenylbutyrate alone) was “P5: A; also recorded: P6: A”. Moreover, the mean ammonia levels result in data set [5] was “increased from baseline values”. Also, the mean glutamine levels result in [5] is given as “reduction”.

Turning to `NCCC[C@H](N)C(=O)O` [ornithine], in data set [3] (FIG. 27), the arterial ornithine levels result is “increase”. Besides, in data set [6] (over the course of OIP treatment, reduced to basal values on stopping the drug (FIG. 18)), the Ornithine levels entry is “marked sustained increase”. Moreover, in data set [5], the mean ammonia levels entry is “increased from baseline values” and the mean glutamine levels entry is given as “increase”.

With L-ornithine L-aspartate [LOLA], the ammonia concentration result in data set [7] (LOLA 40 g over 8 hours with CVVH (FIG. 9)) is given as “reduction”; in [8] (setting [12]) it was “significant reduction”. Besides, the glutamine concentration result is listed as “prevented the concomitant increase” in data set [7] (LOLA with addition of dialysis (FIG. 9)) and “concomitant rise” in data set [8] (setting [12]). Also, in data set [8] (LOLA 40 g over 8 hours), the “severity of HE” value was “beneficial effects”. For the same compound, in [8] (after LOLA was stopped), the “recurrence of HE” value is 3 of the 6. For the same compound, the “circulating ammonia levels when LOLA was stopped” value in [8] (after stopping infusion) is listed as “rebound increase”. Also, the ASPARTATE concentration in data set [9] (Day 1, 40 g/day) amounted to 178 µmol/L; in [9] (Day 2, 40 g/day), 289 µmol/L; in data set [9] (Day 3, 40 g/day), 354 µmol/L; in data set [9] (PRE, 40 g/day L-ornithine L-aspartate), 72 µmol/L. Besides, the “increase in the aspartate concentration” value in [9] (over a 3 day period) worked out at 5 times the basal value.

`CC[C@H](C)[C@H](N)C(=O)O` [isoleucine]: in [10], the neutrophil chemotaxis is reported as 25.4 (±6.0) cells/high power field. For the same compound, the “patients died from multiorgan failure in the hospital” value in data set [6] (2 patients per group) is “One”. Further, the ammonia concentrations entry in data set [6] (FIG. 14) is given as “no significant changes”. In addition, the glutamine levels result in [6] (FIG. 15) was “not significantly altered”. The Dead/Alive result in data set [6] (individual patients P3-P6, listed as Isoleucine alone) is “P3: A; also recorded: P4: D”. Further, the “Net Balance” value in data set [11] (Leg, End) is listed as 261 ± 102 nmol/kg body cell mass/min; in data set [11] (Leg, t = 0 hours) it was −185 ± 152 nmol/kg body cell mass/min; in data set [11] (Liver, End) it was 682 ± 165 nmol/kg body cell mass/min; in data set [11] (Liver, t = 0 hours), 98 ± 33 nmol/kg body cell mass/min. For the same compound, the Protein breakdown in data set [11] (Leg, End) is given as 159 ± 100 nmol/kg body cell mass/min; in [11] (Leg, t = 0 hours), 196 ± 61 nmol/kg body cell mass/min; in data set [11] (Liver, End) it was 157 ± 204 nmol/kg body cell mass/min; in data set [11] (Liver, t = 0 hours) it was 109 ± 25 nmol/kg body cell mass/min. The Protein synthesis was 377 ± 135 nmol/kg body cell mass/min in [11] (Leg, End); −31 ± 201 nmol/kg body cell mass/min in [11] (Leg, t = 0 hours); 839 ± 221 nmol/kg body cell mass/min in [11] (Liver, End (final hour of amino acid infusion)); 218 ± 37 nmol/kg body cell mass/min in data set [11] (Liver, t = 0 hours). For the same compound, the “protein synthesis of liver and muscle” value in data set [11] (isoleucine infusion during simulated bleed) was “restores impaired protein synthesis”. Also, the “ammonia concentration, isoleucine versus placebo” value in [11] (simulated bleed over 4 hours (FIG. 7)) is on record as “not significantly different”.
